One assay addresses T1, human follicle-stimulating hormone receptor (FSHR) (Homo sapiens, UniProt P23945).
T1 construct: host or cells: CHO-K1
T1 sequence (P23945 18-695): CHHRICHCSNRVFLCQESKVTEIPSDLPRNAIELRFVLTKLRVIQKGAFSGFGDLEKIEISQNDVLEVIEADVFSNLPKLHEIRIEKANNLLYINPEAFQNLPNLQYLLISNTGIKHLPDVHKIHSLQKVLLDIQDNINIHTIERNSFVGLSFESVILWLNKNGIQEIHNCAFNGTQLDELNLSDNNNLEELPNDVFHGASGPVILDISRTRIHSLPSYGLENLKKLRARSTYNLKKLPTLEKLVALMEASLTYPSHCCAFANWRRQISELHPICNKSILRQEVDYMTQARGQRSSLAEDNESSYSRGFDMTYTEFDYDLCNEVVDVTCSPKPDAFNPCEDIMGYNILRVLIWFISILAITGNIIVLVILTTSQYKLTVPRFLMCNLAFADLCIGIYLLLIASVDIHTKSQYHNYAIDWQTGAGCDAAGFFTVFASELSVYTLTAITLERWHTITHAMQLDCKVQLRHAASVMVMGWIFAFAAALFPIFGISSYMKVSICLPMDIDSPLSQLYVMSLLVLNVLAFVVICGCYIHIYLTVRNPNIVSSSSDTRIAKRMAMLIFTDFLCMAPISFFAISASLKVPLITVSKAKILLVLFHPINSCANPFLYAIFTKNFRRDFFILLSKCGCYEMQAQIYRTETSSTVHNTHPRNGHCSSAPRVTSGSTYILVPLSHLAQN
As to the kind of experiment: Measurement of agonist cAMP production by activation of human FSHR. In kind it is cell-based. Particulars: CHO-K1 human FSHR cells, 30 minutes at 37° C., HTRF cAMP kit; read-out: hFSHR Agonist cAMP EC50. In a few lines:
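cAMP output was measured by HTRF after 30 min at 37 °C agonist exposure (0–10,000 nM final) in stably FSHR-transfected CHO-K1 cells. Lysate cAMP was read off a standard curve and fitted to obtain half-maximal EC50.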
Turning to `COc1cc2c(cc1-c1cccc(NC(=O)CCC(=O)N(CC(=O)O)C3CCN(C(=O)CN4CCN(CC(=O)O)CCN(CC(=O)O)CCN(CC(=O)O)CC4)CC3)c1)-c1c(c(C(=O)N3CCOCC3(C)C)nn1-c1cc(Cl)cc(Cl)c1)CO2` [Compound 46, 2,2′,2″-(10-(2-(4-(N-(carboxymethyl)-4-((3-(1-(3,5-dichlorophenyl)-3-(3,3dimethylmorpholine-4-carbonyl)-7-methoxy-1,4-dihydrochromeno|4,3-clpyrazol-8-yl)phenyl)amino)-4-oxobutanamido)piperidin-1-yl)-2-oxoethyl)-1,4,7,10-tetraazacyclododecane-1,4,7-trivl)triacetic acid], the EC50 lay within 10 to 100 nM.
On the same count and under the same terms, the figure for `COc1cc2c(cc1-c1cccc(NC(=O)CCOCC(COCCC(=O)O)(COCCC(=O)O)NC(=O)CN3CCN(CC(=O)O)CCN(CC(=O)O)CCN(CC(=O)O)CC3)c1)-c1c(c(C(=O)N3CCOCC3(C)C)nn1-c1cc(Cl)cc(Cl)c1)CO2` [Compound 47, 2,2′,2″-(10-(2-((1,3-bis(2-carboxyethoxy)-2-((3-((3-(1-(3,5-dichlorophenyl)-3(3,3-dimethylmorpholine-4-carbonyl)-7-methoxy-1,4-dihydrochromeno|4,3-clpyrazol-8-yl)phenyl)amino)-3-oxopropoxy)methyl)propan-2-yl)amino)-2-oxoethyl)-1,4,7,10-tetraazacyclododecane-1,4,7-triyl)triacetic acid] is 10 to 100 nM; for `COc1cc2c(cc1-c1cncc(NC(=O)CCC(=O)NC[C@H](NC(=O)CN3CCN(CC(=O)O)CCN(CC(=O)O)CCN(CC(=O)O)CC3)C(=O)N3CCN(CCS(=O)(=O)O)CC3)c1)-c1c(c(C(=O)N3CCOCC3(C)C)nn1-c1cc(F)cc(F)c1)CO2` [Compound 49, (S)-2,2′,2″-(10-(2-((3-(4-((5-(1-(3,5-difluorophenyl)-3-(3,3-dimethylmorpholine-4-carbonyl)-7-methoxy-1,4-dihydrochromeno[4,3-c]pyrazol-8-yl)pyridin-3-yl)amino)-4-oxobutanamido)-1-oxo-1-(4-(2-sulfoethyl)piperazin-1-yl)propan-2-yl)amino)-2-oxoethyl)-1,4,7,10-tetraazacyclododecane-1,4,7-triyl)triacetic acid--formic acid (1/1)] it is over 100 nM; for `COc1cc2c(cc1-c1cccc(NC(=O)CCC(=O)NCCCC[C@@H](NC(=O)[C@@H](CC(=O)O)NC(=O)[C@@H](CC(=O)O)NC(=O)CCNC(=O)CN3CCN(CC(=O)O)CCN(CC(=O)O)CCN(CC(=O)O)CC3)C(N)=O)c1)-c1c(c(C(=O)N3CCOCC3(C)C)nn1-c1cc(Cl)cc(Cl)c1)CO2` [Compound 51, 2,2′,2″-(10-((8R,11R,14R)-14-carbamoyl-8,11-bis(carboxymethyl)-23-((3-(1(3,5-dichlorophenyl)-3-(3,3-dimethylmorpholine-4-carbonyl)-7-methoxy-1,4-dihydrochromeno[4,3-c]pyrazol-8-yl)phenyl)amino)-2,6,9,12,20,23-hexaoxo-3,7,10,13,19-pentaazatricosyl)-1,4,7,10-tetraazacyclododecane-1,4,7-triyl)triacetic acid] it is under 10 nM.
For `COc1cc2c(cc1-c1cncc(NC(=O)CCOCCOCCNC(=O)CN3CCN(CC(=O)O)CCN(CC(=O)O)CCN(CC(=O)O)CC3)c1)-c1c(c(C(=O)N3CCOCC3(C)C)nn1-c1cc(Cl)cc(Cl)c1)CO2` [Compound 52, 2,2′,2″-(10-(2-((2-(2-(3-((5-(1-(3,5-dichlorophenyl)-3-(3,3-dimethylmorpholine-4-carbonyl)-7-methoxy-1,4-dihydrochromeno[4,3-c]pyrazol-8-yl)pyridin-3-yl)amino)-3-oxopropoxy)ethoxy)ethyl)amino)-2-oxoethyl)-1,4,7,10-tetraazacyclododecane-1,4,7-triyl)triacetic acid--2,2,2-trifluoroacetic acid (1/1)], the EC50 is under 10 nM.
On to `COc1cc2c(cc1-c1cncc(NC(=O)CCOCCNC(=O)CN3CCN(CC(=O)O)CCN(CC(=O)O)CCN(CC(=O)O)CC3)c1)-c1c(c(C(=O)N3CCOCC3(C)C)nn1-c1cc(Cl)cc(Cl)c1)CO2` [Compound 53, 2,2′,2″-(10-(2-((2-(3-((5-(1-(3,5-dichlorophenyl)-3-(3,3-dimethylmorpholine-4-carbonyl)-7-methoxy-1,4-dihydrochromeno[4,3-c]pyrazol-8-yl)pyridin-3-yl)amino)-3-oxopropoxy)ethyl)amino)-2-oxoethyl)-1,4,7,10-tetraazacyclododecane-1,4,7-triyl)triacetic acid--2,2,2-trifluoroacetic acid (1/1)], for which the concentration giving a half-maximal response (EC50) is under 10 nM.
With `COc1cc2c(cc1-c1cncc(NC(=O)CCOCCOCCNC(=O)C3OC(CNC(=O)CN4CCN(CC(=O)O)CCN(CC(=O)O)CCN(CC(=O)O)CC4)C(O)C(O)C3O)c1)-c1c(c(C(=O)N3CCOCC3(C)C)nn1-c1cc(Cl)cc(Cl)c1)CO2` [Compound 54, 2,2′,2″-(10-(2-((((2S,3R,4R,5R,6S)-6-((2-(2-(3-((5-(1-(3,5-dichlorophenyl)-3-(3,3-dimethylmorpholine-4-carbonyl)-7-methoxy-1,4-dihydrochromeno[4,3-c]pyrazol-8-yl)pyridin-3-yl)amino)-3-oxopropoxy)ethoxy)ethyl)carbamoyl)-3,4,5-trihydroxytetrahydro-2H-pyran-2-yl)methyl)amino)-2-oxoethyl)-1,4,7,10-tetraazacyclododecane-1,4,7-triyl)triacetic acid--2,2,2-trifluoroacetic acid (1/1)], the half-maximal effective concentration (EC50) was under 10 nM.
Consider `COc1cc2c(cc1-c1cncc(NC(=O)CCOCCOCCNC(=O)[C@H]3O[C@@H](CNC(=O)CN4CCN(CC(=O)O)CCN(CC(=O)O)CCN(CC(=O)O)CC4)[C@H](O)[C@@H](O)[C@H]3O)c1)-c1c(c(C(=O)N3CCOCC3(C)C)nn1-c1cc(Cl)cc(Cl)c1)CO2` [Compound 54A, indium (III) 2,2′,2″-(10-(2-((((2S,3R,4R,5R,6S)-6-((2-(2-(3-((5-(1-(3,5-dichlorophenyl)-3-(3,3-dimethylmorpholine-4-carbonyl)-7-methoxy-1,4-dihydrochromeno[4,3-c]pyrazol-8-yl)pyridin-3-yl)amino)-3-oxopropoxy)ethoxy)ethyl)carbamoyl)-3,4,5-trihydroxytetrahydro-2H-pyran-2-yl)methyl)amino)-2-oxoethyl)-1,4,7,10-tetraazacyclododecane-1,4,7-triyl)triacetate], for which the EC50 lay within 10 to 100 nM.
Consider `COc1cc2c(cc1-c1cncc(NC(=O)CNC(=O)CC[C@@H](NC(=O)CNC(=O)CN3CCN(CC(=O)O)CCN(CC(=O)O)CCN(CC(=O)O)CC3)C(=O)O)c1)-c1c(c(C(=O)N3CCOCC3(C)C)nn1-c1cc(Cl)cc(Cl)c1)CO2` [Compound 55, (R)-2,2′,2″-(10-(2-((2-((1-carboxy-4-((2-((5-(1-(3,5-dichlorophenyl)-3-(3,3-dimethylmorpholine-4-carbonyl)-7-methoxy-1,4-dihydrochromeno[4,3-c]pyrazol-8-yl)pyridin-3-yl)amino)-2-oxoethyl)amino)-4-oxobutyl)amino)-2-oxoethyl)amino)-2-oxoethyl)-1,4,7,10-tetraazacyclododecane-1,4,7-triyl)triacetic acid--2,2,2-trifluoroacetic acid (1/1)], for which the EC50 was 10 to 100 nM.
Turning to `COc1cc2c(cc1-c1cncc(NC(=O)CNC(=O)[C@H](CCC(=O)NC[C@H](O)[C@@H](O)[C@H](O)[C@H](O)CO)NC(=O)CN3CCN(CC(=O)O)CCN(CC(=O)O)CCN(CC(=O)O)CC3)c1)-c1c(c(C(=O)N3CCOCC3(C)C)nn1-c1cc(Cl)cc(Cl)c1)CO2` [Compound 56, 2,2′,2″-(10-(2-(((S)-1-((2-((5-(1-(3,5-dichlorophenyl)-3-(3,3-dimethylmorpholine-4-carbonyl)-7-methoxy-1,4-dihydrochromeno[4,3-c]pyrazol-8-yl)pyridin-3-yl)amino)-2-oxoethyl)amino)-1,5-dioxo-5-(((2S,3R,4R,5R)-2,3,4,5,6-pentahydroxyhexyl)amino)pentan-2-yl)amino)-2-oxoethyl)-1,4,7,10-tetraazacyclododecane-1,4,7-triyl)triacetic acid--2,2,2-trifluoroacetic acid (1/1)], the EC50 fell in the range of 10 to 100 nM.

The same assay, now with this note: hFSHR Agonist cAMP EC50, CHO-K1 human FSHR cells, 30 minutes at 37° C., HTRF cAMP kit.
The molecule `COc1cc2c(cc1-c1cncc(NC(=O)CCNC(=O)[C@@H](CCCCNC(=O)CN3CCN(CC(=O)O)CCN(CC(=O)O)CCN(CC(=O)O)CC3)NC(=O)CN3CCN(CCS(=O)(=O)O)CC3)c1)-c1c(c(C(=O)N3CCOCC3(C)C)nn1-c1cc(F)cc(F)c1)CO2` [Compound 50, (R)-2,2′,2″-(10-(2-((6-((3-((5-(1-(3,5-difluorophenyl)-3-(3,3-dimethylmorpholine-4-carbonyl)-7-methoxy-1,4-dihydrochromeno[4,3-c]pyrazol-8-yl)pyridin-3-yl)amino)-3-oxopropyl)amino)-6-oxo-5-(2-(4-(2-sulfoethyl)piperazin-1-yl)acetamido)hexyl)amino)-2-oxoethyl)-1,4,7,10-tetraazacyclododecane-1,4,7-triyl)triacetic acid--formic acid (1/1)] yielded a 50% effective concentration (EC50) of over 100 nM.

Values taken from patent US20260137819A1 (Radionetics Oncology, Inc., priority 2022, published 2026).
